Key:
BSA = BSA (Bos taurus, UniProt P02769); test: Absorbance/emission spectra, fluorescence enhancement and quantum yield of dyes in solution +/- BSA (Example 21); format: physicochemical, bovine; details: for EM λ max, BSA / FE (fluorescence enhancement, BSA) / Quantum Yield (BSA) / ABS λ max, BSA: 150 μg/mL BSA; for EM λ max, BSA / EM λ max, unbound / ABS λ max, BSA / ABS λ max, unbound: 10 mM Tris-HCl, pH 7.5, 0.05% SDS; for FE (fluorescence enhancement, BSA): 0.05% SDS, at emission maxima; for FE (fluorescence enhancement, BSA) / Quantum Yield (BSA): 470 nm excitation; for Quantum Yield (BSA): relative to fluorescein in 0.1 M NaOH; for EM λ max, unbound / ABS λ max, unbound: dye without BSA
BSA, sequence (P02769 25-607): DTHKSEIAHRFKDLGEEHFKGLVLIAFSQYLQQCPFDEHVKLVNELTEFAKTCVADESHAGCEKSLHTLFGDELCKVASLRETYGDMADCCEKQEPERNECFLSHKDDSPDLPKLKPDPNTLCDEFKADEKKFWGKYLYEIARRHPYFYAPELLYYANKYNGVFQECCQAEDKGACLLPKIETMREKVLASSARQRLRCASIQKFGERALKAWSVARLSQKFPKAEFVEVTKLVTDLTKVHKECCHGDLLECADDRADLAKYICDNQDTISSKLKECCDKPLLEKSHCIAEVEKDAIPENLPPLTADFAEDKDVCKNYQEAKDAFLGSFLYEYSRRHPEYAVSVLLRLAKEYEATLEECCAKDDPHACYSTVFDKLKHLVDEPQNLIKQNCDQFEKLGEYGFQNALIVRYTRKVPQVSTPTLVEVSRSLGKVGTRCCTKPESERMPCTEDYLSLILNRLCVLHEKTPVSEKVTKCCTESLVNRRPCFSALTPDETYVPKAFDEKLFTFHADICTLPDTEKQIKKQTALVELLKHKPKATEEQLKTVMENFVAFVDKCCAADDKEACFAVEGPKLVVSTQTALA
Protocol: A particular dye of this invention is generally selected for a particular assay using one or more of the following criteria: sensitivity to poly(amino acids), insensitivity to the presence of nucleic acids, dynamic range, photostability, staining time, and spectral properties. […] Although the fluorescence enhancements and quantum yields are low to moderate in solution, some are significant relative to the long wavelength emission maxima (see Table 1 and Example 21).
Measurements are performed using −1 μM dye+/−150 μg/mL BSA in 10 mM Tris-HCl, pH 7.5,+0.05% SDS with a 2.0 mL sample volume. Fluorescence enhancements are calculated at emission maxima in a standard fluorometer using 470 nm excitation. Fluorescence quantum yields are determined relative to fluorescein (in 0.1 M NaOH), using 470 nm excitation.

[1] = test system: amino acid homo- and hetero-polymers; test: Dye staining of amino acid homo- and hetero-polymers copolymerized into polyacrylamide gel discs; details: gel discs with 0.1% SDS; no asterisk = moderate
Source text: The specificity of protein detection of the present method can be compared to that of silver, CBB, SYPRO Orange dye and SYPRO Red dye staining for a variety of synthetic poly(amino acids) copolymerized into a polyacrylamide gel matrix. To do this, homopolymers of L-arginine, asparagine, histidine, lysine, aspartate, glutamate, alanine, glycine, isoleucine, leucine, methionine, serine, threonine, tryptophan, tyrosine and proline are copolymerized into 15% T, 2.6% C polyacrylamide gels at a concentration of […]. Except when indicated, 0.1% sodium dodecyl sulfate is included in the polyacrylamide solution as well. The amino acid heteropolymers, poly(glutamate, alanine, tyrosine), poly(glutamate, tyrosine), poly(lysine, tyrosine), poly(glutamate, lysine, tyrosine), and poly(arginine, tyrosine) are copolymerized into polyacrylamide gels in an identical manner as the homopolymers. Blank gels containing no polymer are prepared for reference. The co-polymerized gels are cut into discs using the large end of a 1000 microliter pipet tip (Sorenson Bioscience, Inc., West Salt. Lake City, Utah) and stained in Falcon 48 well flat bottom tissue culture plates (Becton-Dickinson, Franklin Lakes, N.J.) on an orbital shaker operating at 50 RPM. Gel discs are quantified on a Roche Lumi-Imager system (Indianapolis, Ind.) and classified into three groups based upon staining intensity (strong, moderate, or weak staining).

[2] = test system: broad-range protein molecular weight markers; test: Staining of broad-range molecular weight protein standards in SDS-polyacrylamide gels (Example 22, FIG. 2, 3); details: regardless of the buffer
Protocol: (§1) FIG. 2: Intensity profile comparison after staining broad-range protein molecular weight markers with SYPRO Orange dye in 7% acetic acid and phosohate-buffered saline. FIG. 2A.) Profile obtained with SYPRO Orange dye in 7% acetic acid. FIG. 2B.) Profile obtained with SYPRO Orange dye in 50 mM sodium phosphate, 150 mM sodium chloride, pH 7.0. Grey scale values of the fluorescence signals were inverted prior to obtaining the traces to facilitate evaluation of the peaks.
as §1, with “3:” for “2:”, “Compound 9” for “SYPRO Orange dye”, “phosphate-buffered” for “phosohate-buffered”, “3A.)” for “2A.)”, “3B.)” for “2B.)”
SDS-polyacrylamide gel electrophoresis is performed by standard methods utilizing 4% T, 2.6% C stacking gels, pH 6.8 and 15% T, 2.6% C separating gels, pH 8.8. % T is the total monomer concentration expressed in grams per 100 mL and % C is the percentage crosslinker. A staining solution of Compound 9 is prepared by diluting a stock solution that 5 is […] dye in DMSO in either 7.5% acetic acid or 50 mM Na2HPO4, 150 mM NaCl, pH 7.0 with vigorous mixing. Alternatively, a wide range of buffers are compatible with staining, including but not limited to formate, pH 4.0; citrate, pH 4.5; acetate, pH 5.0; MES, pH 6.0;
imidazole, pH 7.0; HEPES, pH 7.5; Tris acetate, pH 8.0; Tris-HCl, pH 8.5; Tris borate, 20 mM EDTA, pH 9.0; and bicarbonate, pH 10.0. Buffers should be prepared as 50-100 mM 10 solutions containing about 150 mM NaCl. Approximately 50-75 mL of staining solution is used for a typical mini-gel (5 cm×9 cm×1 mm). The gel is placed into the staining solution and the container is covered with aluminum foil to protect the dye from bright light. The gel is gently agitated for at least 30 minutes at room temperature using an orbital shaker (50:RPM). After staining, the gel is briefly dipped in water and visualized on a UV light box. […] As little as 1 ng of protein may be visualized when the fluorescent image is recorded by photography using a cellophane 490-nm long pass filter. […] In the latter buffer, protein bands are barely detectable above background fluorescence with these latter dyes.

Molecule	EM λ max, BSA (BSA) [nm]	FE (fluorescence enhancement, BSA) (BSA) [fold]	Quantum Yield (BSA) (BSA)	EM λ max, unbound (BSA) [nm]	ABS λ max, BSA (BSA) [nm]	ABS λ max, unbound (BSA) [nm]	Staining intensity, Glu:Lys:Tyr heteropolymer [1]	Staining intensity, Ile homopolymer [1]	Staining intensity, Lys homopolymer [1]	Staining intensity, Lys:Tyr heteropolymer [1]	Appearance of stained proteins on UV light box [2]	Staining intensity, Arg homopolymer [1]	Staining intensity, Arg:Tyr heteropolymer [1]	Staining intensity, His homopolymer [1]
CCn1c2ccccc2c2cc(/C=C/c3ccc4cc(OC)ccc4[n+]3C)ccc21 [Compound 17]	~610	2.5	0.04	679	–	–	–	–	–	–	–	–	–	–
Silver	–	–	–	–	–	–	Tyr*	Ile	Lys*	Lys:Tyr*	–	–	–	–
CCOCC(=O)CCC[n+]1ccc(/C=C/c2ccc3c(c2)c2ccccc2n3CC)c2ccccc21.[Br-] [Compound 10]	612	110	0.21	~700	492	468	–	–	–	–	–	–	–	–
O=S(=O)([O-])CCCC[n+]1ccc(/C=C/c2ccc3c(c2)c2ccccc2n3-c2ccccc2)c2ccccc21 [Compound 15]	591	52	0.25	670	469	468	–	–	–	–	–	–	–	–
CCCCc1cc(/C=C/c2ccc3c(c2)c2ccccc2n3CC)c2ccccc2[n+]1-c1ccccc1.[Cl-] [Compound 16]	623	25	0.17	676	491	480	–	–	–	–	–	–	–	–
CCn1c2ccccc2c2cc(/C=C/C3=[N+](CCCCCC(=O)O)c4ccc(S(=O)(=O)[O-])cc4C3(C)C)ccc21 [Compound 18]	590	3.0	0.01	611	502	503	–	–	–	–	–	–	–	–
CCOc1ccc(Nc2ccc(C(=C3C=CC(=[N+](CC)Cc4cccc(S(=O)(=O)[O-])c4)C=C3)c3ccc(N(CC)Cc4cccc(S(=O)(=O)[O-])c4)cc3)cc2)cc1.[Na+] [Coomassie Blue-R]	–	–	–	–	–	–	Glu:Lys:Tyr*	Ile	Lys*	Lys:Tyr*	–	Arg*	Arg:Tyr*	His

Continued, in another order:

EM λ max, BSA (BSA) [nm]	FE (fluorescence enhancement, BSA) (BSA) [fold]	Quantum Yield (BSA) (BSA)	EM λ max, unbound (BSA) [nm]	ABS λ max, BSA (BSA) [nm]	ABS λ max, unbound (BSA) [nm]	Molecule	Staining intensity, Glu:Lys:Tyr heteropolymer [1]	Staining intensity, Ile homopolymer [1]	Staining intensity, Lys homopolymer [1]	Staining intensity, Lys:Tyr heteropolymer [1]	Appearance of stained proteins on UV light box [2]	Staining intensity, Arg homopolymer [1]	Staining intensity, Arg:Tyr heteropolymer [1]	Staining intensity, His homopolymer [1]
609	104	0.21	~700	483	475	CCn1c2ccccc2c2cc(/C=C/c3cc[n+](CCCC(=O)O)c4ccccc34)ccc21.[Cl-] [Compound 11]	–	–	–	–	–	–	–	–
553	15	0.24	588	–	–	CCn1c2ccccc2c2cc(/C=C/c3cc[n+](CCCS(=O)(=O)[O-])cc3)ccc21 [Compound 13]	–	–	–	–	very bright yellow bands against an orange background	–	–	–
576	15	0.08	638	464	448	CCn1c2ccccc2c2cc(/C=C/c3sc4ccccc4[n+]3CCCS(=O)(=O)[O-])ccc21 [Compound 14]	–	–	–	–	–	–	–	–
587	34	0.10	679	453	441	CCn1c2ccccc2c2cc(/C=C/c3ccc4ccccc4[n+]3CCCCS(=O)(=O)[O-])ccc21 [Compound 12]	–	–	–	–	–	–	–	–

— patent US6579718B1, “Carbazolylvinyl dye protein stains” (Molecular Probes, Inc., priority 2000, dated 2003)
